Source: paper PMC8009478, “Novel Curcumin-Diethyl Fumarate Hybrid as a Dualistic GSK-3β Inhibitor/Nrf2 Inducer for the Treatment of Parkinson’s Disease” (ACS Chemical Neuroscience, 2020)

Columns and labels:
[1] = test system: C. elegans BY250 [vtIs7 (Pdat-1:GFP)] CEP neurons; assay: 6-OHDA-induced neurodegeneration of CEP neurons in the C. elegans model of PD; type: in vivo, Caenorhabditis elegans; details: cotreatment 5 μM with 6-OHDA 5 mM for 30 min, scored after 72 h
Source text: The nematode Caenorhabditis elegans (C. elegans) has been increasingly employed as a genetically tractable in vivo model to study the molecular mechanisms involved in several NDDs due to a short life cycle, fast reproduction, and a highly conserved inheritance (genetic basis).[35] This invertebrate model offers the opportunity to take advantage of the significant conservation of genes and metabolic pathways common to both invertebrates and humans. At the neuronal level, the adult wild-type C. elegans organism contains only eight DA neurons that repeat the features of DA neurons of mammalian, making it possible to simplify the investigations considerably. In the transgenic BY250 [vtIs7 (Pdat-1:GFP)] strain, six DA neurons in the head, namely the four sensory cephalic (CEP) and the two anterior deirid (ADE) neurons, express the green fluorescent protein (GFP) and can be clearly visualized by fluorescence microscopy analysis and thus scored over time.[36] Indeed, in this model, investigations of DA neurons degeneration in vivo are feasible through a first exposition of the nematode to PD-inducing toxin, namely 6-OHDA, followed by direct visualization of the GFP-labeled DA neurons.[37] It is thus possible to screen small molecules for their anti-PD potential, in terms of rescue of the DA neurodegeneration phenotype manifested upon neurotoxin exposure, through visualization and scoring of the alterations of CEP neuron count or neuronal morphology. […] This effect makes it possible the identification of neuroprotective agents with the ability to activate Nrf2 through the inhibition of GSK-3.[38] The curcumin-DEF hybrids 4 and 5 were investigated in the above C. elegans model for their protective effects on 6-OHDA-induced degeneration of a subclass of DA neurons. Animals were incubated with 5 μM concentration of 4 and 5, in the presence of 5 mM of 6-OHDA, for 30 min. After 72 h, the animals were studied by examining the four CEP neurons. Degenerating CEP neurons were morphologically analyzed and quantified (Figure 8). We recorded that in animals treated with 6-OHDA, 68% of CEP neurons degenerated.
Figure 8 Effects of 4 and 5 on 6-OHDA-induced neurodegeneration in C. elegans. Animals were treated with 4 or 5 (5 μM) in the presence of 6-OHDA (5 mM) for 30 min. At the end of incubation, treated animals were placed on fresh agar plates for 72 h and then visualized as described in the Materials and Methods section. (A) In nontreated vtIs7 [pdat-1::GFP] transgenic animals, dopaminergic neurons express GFP, with two of the four CEP cell bodies (white arrows) and relative dendrites (arrowheads) visible in this focal plane in the head. (B) 6-OHDA treatment causes the degeneration of CEP dendrites (empty arrowheads) and two cell bodies (gray arrows), in treated animals. The other two CEP neurons are not visible anymore. (C) Compound 5 cotreatment partially rescues the 6-OHDA-induced toxic effects, with degeneration of one of the CEP dendrites (empty arrowhead) but not the other (arrowhead) and with one CEP cell body still viable (white arrow) and one dying (gray arrow) in this focal plane. […] ADE neurons, which are less affected by 6-OHDA treatment, are also visible but were not scored (asterisks). (D) Quantification of degenerating CEP neurons. Data are expressed as percentages of degenerating neurons and reported as mean ± SEM of at least three independent experiments. […]

NQO1 = NQO1 gene expression by RT-PCR; type: cell-based, human; details: 5 μM, after 12 and 24 h of treatment
Method: Figure 5 Effects of compounds 4 and 5 on the Nrf2/ARE signaling pathway (A and B) and NQO1 gene expression (C) in SH-SY5Y cells. (A) Cells were treated with compounds 4 and 5 (5 μM) for different times (1, 3, and 6 h). Translocation of Nrf2 from the cytosol to the nucleus was evaluated by Western blotting. Data are expressed as a ratio between nuclear Nrf2 and cytoplasmic Nrf2 levels and reported as mean ± SEM of at least three independent experiments. (B) Cells were treated with compounds 4 and 5 (5 μM) and DMF (5 μM) for 6 h. The Nrf2/ARE binding activity was determined by an ELISA assay. Results are expressed as fold increase versus untreated cells and reported as mean ± SEM of at least three independent experiments (** p < 0.01 and * p < 0.05 versus untreated cells at the t-test). (C) Cells were treated with compounds 4 and 5 (5 μM) for different times (6, 12, and 24 h). The NQO1 expression was determined by RT-PCR. Results are expressed as the relative normalized expression and reported as mean ± SEM of at least three independent experiments (*** p < 0.001 versus untreated cells at one-way ANOVA with the Dunnett post hoc test).
To further confirm the increase in Nrf2 transcriptional activity upon treatment with 4 and 5, the mRNA levels of NQO1, a Nrf2 target gene, were evaluated in SH-SY5Y cells (Figure 5C). […]

SMILES | degenerating CEP neurons [1] | rescue of the 6-OHDA-induced degeneration phenotype [1] | NQO1 mRNA levels (NQO1)
CCOC(=O)/C=C/C(C(=O)/C=C/c1ccc(OC)cc1)=C(O)\C=C\c1ccc(OC)cc1 [Compound 4, Ethyl (2E,4Z,6E)-5-Hydroxy-7-(4-methoxyphenyl)-4-((E)-3-(4-methoxyphenyl)acryloyl)hepta-2,4,6-trienoate] | 67% | no rescue | significant ability to increase NQO1 mRNA levels
CCOC(=O)/C=C/C(C(=O)/C=C/c1ccc(OC)cc1)=C(O)\C=C\c1ccc(OCc2ccccc2)cc1 [Compound 5, Ethyl (2E,4Z,6E)-7-(4-(Benzyloxy)phenyl)-5-hydroxy-4-((E)-3-(4-methoxyphenyl)acryloyl)hepta-2,4,6-trienoate] | 55% | partial rescue | significant ability to increase NQO1 mRNA levels
